Experimental data taken from PMC7114325 (Antiviral Research, 2008).

Assays:
in vitro [1] = details: hamster
in vitro [2] = details: African green monkey
West Nile virus = details: cited from earlier work

Compound | CC50 (in vitro [1]) [µM] | CC50 (in vitro [2]) [µM] | activity against West Nile virus (West Nile virus) | CC50 (Vero E6 cells) [µM] | CC50 (BHK-21 cells) [µM]
CC(C)=CCC[C@](C)(O)C1CC[C@@H]2C1CC[C@H]1C2(C)CC[C@H]2C(C)(C)C(=O)CCC12C (stereo partly drawn) [Compound C01225, (5R,9S,14R)-dodecahydro-17-((S)-2-hydroxy-6-methylhept-5-en-2-yl)-4,4,8,10-tetramethyl-2Hcyclopenta[a]phenanthren-3(4H,9H,14H)-one] | > 100 | > 100 | – | – | –
NC(=O)CCS(=O)(=O)c1ccc(Cl)cc1 [Compound C03455, 3-(4-Chlorobenzenesulfonyl)-propionamide] | 87 ± 5.23 | > 100 | active | – | –
COc1cc(/C=C(/NC(=O)c2ccccc2)C(=O)NNC(=O)CN)ccc1O [Compound C11472, (E)-N′-(2-aminoacetyl)-2-(benzamido)-3-(4-hydroxy-3-methoxyphenyl)acrylohydrazide] | > 100 | 82 ± 4.33 | – | – | –
CC1=C(C(=O)OCCc2ccccc2)C(c2ccccc2[N+](=O)[O-])C2=C(CCCC2=O)N1 (stereo not shown) [Compound C12344, 3-Quinolinecarboxylic acid, 1,4,5,6,7,8-hexahydro-2-methyl-4-(2-nitrophenyl)-5-oxo-, 2-phenylethyl ester] | > 100 | > 100 | – | – | –
CCOC(=O)c1cnc2ccc(OCC)cc2c1NCc1ccccc1 [Compound C26505, 4-Benzylamino-6-ethoxy-quinoline-3-carboxylic acid ethylester] | 78 ± 4.87 | > 100 | active | – | –
N#Cc1c(N)nc(Sc2ccc(Cl)cc2)c(C#N)c1-c1cccs1 [Compound C47655, 2-Amino-6-[(4-chlorophenyl)thio]-4-(2-thienyl)pyridine-3,5-dicarbonitrile] | > 100 | > 100 | – | – | –
S-Nitroso-N-acetyl penicillamine [Compound C38477] | – | – | – | 84 ± 2.96 | 58 ± 1.22
